*1 amine or outer side, *2 acyl side, *3 side chain or, on linkers, in order; H or OH if unused. Where a SMILES comes first, the peptide text is derived from it. [ ]: non-standard residue; d: D form. Trp(4-Cl)(βS-Me) = C[C@@H](c1c[nH]c2cccc(Cl)c12)[C@H](N)C(=O)O; Trp(βS-Me,4-F) = C[C@@H](c1c[nH]c2cccc(F)c12)[C@H](N)C(=O)O; Bip(4'-COOH) = N[C@@H](Cc1ccc(-c2ccc(C(=O)O)cc2)cc1)C(=O)O; X1 = CC(=O)N1CCN(c2ccc(C[C@H](N[*:1])C(=O)[*:2])cn2)CC1; 1Nal(3S-Me) = C[C@@H](c1cccc2ccccc12)[C@H](N)C(=O)O; Trp(6-Cl) = N[C@@H](Cc1c[nH]c2cc(Cl)ccc12)C(=O)O; Phe(4-COOH) = N[C@@H](Cc1ccc(C(=O)O)cc1)C(=O)O; Trp(7-aza) = N[C@@H](Cc1c[nH]c2ncccc12)C(=O)O; Pro(4R-NH2) = N[C@H]1CN[C@H](C(=O)O)C1; 1Nal = N[C@@H](Cc1cccc2ccccc12)C(=O)O; AEF = NCCOc1ccc(C[C@H](N)C(=O)O)cc1; hTyr = N[C@@H](CCc1ccc(O)cc1)C(=O)O; hCha = N[C@@H](CCC1CCCCC1)C(=O)O; dOrn = NCCC[C@@H](N)C(=O)O; dDab = NCC[C@@H](N)C(=O)O; dNMeA = CN[C@H](C)C(=O)O; Dap = NC[C@H](N)C(=O)O
Molecular target: T1, Recombinant human IL-1β (Homo sapiens, UniProt P01584)
T1 construct: purchased BioLegend 579404
T1 sequence (P01584 117-269): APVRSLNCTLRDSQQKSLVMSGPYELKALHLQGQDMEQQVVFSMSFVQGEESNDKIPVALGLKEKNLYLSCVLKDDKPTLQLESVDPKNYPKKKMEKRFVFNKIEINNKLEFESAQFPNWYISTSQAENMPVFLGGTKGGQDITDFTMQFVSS
Assay: IL-6 assay in MRC5 cells: inhibition of IL-1β induced IL-6 secretion (AlphaLISA)
Type: cell-based
Conditions: inhibition of IL-1β induced IL-6 secretion in MRC5 cells; read-out: MRC5 IC50
How it was run: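 IL-1β at 2×EC80 in seeding medium (EMEM, 0.025% BSA) preincubated 1 h at ambient temperature with compound, then 3000 MRC5 cells/well added and incubated overnight at 37 °C, 5% CO2. IL-6 in conditioned medium quantified by AlphaLISA; IC50 from 4-parameter logistic fit.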

Row | IC50 [nM] | Compound
1 | 0.016 | CC(=O)N1CCN(c2ccc(C[C@@H]3NC(=O)[C@H](CCC4CCCCC4)NC(=O)[C@@H](C)NC(=O)[C@H](CC(C)C)NC(=O)[C@H](CN)NC(=O)[C@H](Cc4ccc(-c5ccc(C(=O)O)cc5)cc4)NC(=O)CNC(=O)[C@@H](C)N(C)C(=O)[C@H](CC(=O)O)NC(=O)[C@H]([C@@H](C)c4cccc5ccccc45)NC(=O)[C@@H]4C[C@@H](N)CN4C(=O)CNC(=O)[C@H](Cc4ccc(C(=O)O)cc4)NC(=O)[C@H](Cc4c[nH]c5ccccc45)NC3=O)cn2)CC1 [Example 175] (cyclo([X1]W[Phe(4-COOH)]G[Pro(4R-NH2)][1Nal(3S-Me)]D[dNMeA]G[Bip(4'-COOH)][Dap]L[dA][hCha]))
2 | 0.0966 | CC(=O)NCCOc1ccc(C[C@@H]2NC(=O)[C@H](CCc3ccc(O)cc3)NC(=O)[C@@H](CCCN)NC(=O)[C@H](CC(C)C)NC(=O)[C@H](Cc3c[nH]c4ccccc34)NC(=O)[C@H](Cc3ccc(-c4ccc(C(=O)O)cc4)cc3)NC(=O)CNC(=O)[C@@H](C)N(C)C(=O)[C@H](CC(=O)O)NC(=O)[C@H]([C@@H](C)c3c[nH]c4cccc(F)c34)NC(=O)[C@@H]3C[C@@H](N)CN3C(=O)CNC(=O)[C@H](Cc3ccc(C(=O)O)cc3)NC(=O)[C@H](Cc3c[nH]c4ccccc34)NC2=O)cc1 [Example 170] (cyclo([AEF](Ac)W[Phe(4-COOH)]G[Pro(4R-NH2)][Trp(βS-Me,4-F)]D[dNMeA]G[Bip(4'-COOH)]WL[dOrn][hTyr]))
3 | 0.0498 | CC(=O)NCCOc1ccc(C[C@@H]2NC(=O)[C@H](CCc3ccc(O)cc3)NC(=O)[C@@H](C)NC(=O)[C@H](CC(C)C)NC(=O)[C@H](Cc3cccc4ccccc34)NC(=O)[C@H](Cc3ccc(-c4ccc(C(=O)O)cc4)cc3)NC(=O)CNC(=O)[C@@H](C)N(C)C(=O)[C@H](CC(=O)O)NC(=O)[C@H]([C@@H](C)c3c[nH]c4cccc(Cl)c34)NC(=O)[C@@H]3C[C@@H](N)CN3C(=O)CNC(=O)[C@H](Cc3ccc(C(=O)O)cc3)NC(=O)[C@H](Cc3c[nH]c4ccccc34)NC2=O)cc1 [Example 131] (cyclo([AEF](Ac)W[Phe(4-COOH)]G[Pro(4R-NH2)][Trp(4-Cl)(βS-Me)]D[dNMeA]G[Bip(4'-COOH)][1Nal]L[dA][hTyr]))
4 | 0.636 | CC(=O)NCCOc1ccc(C[C@@H]2NC(=O)[C@H](C)NC(=O)[C@@H](C)NC(=O)[C@H](CC(C)C)NC(=O)[C@H](Cc3c[nH]c4ccccc34)NC(=O)[C@H](Cc3ccc(-c4ccc(C(=O)O)cc4)cc3)NC(=O)CNC(=O)[C@@H](C)N(C)C(=O)[C@H](CC(=O)O)NC(=O)[C@H]([C@@H](C)c3cccc4ccccc34)NC(=O)[C@@H]3C[C@@H](N)CN3C(=O)CNC(=O)[C@H](Cc3ccc(C(=O)O)cc3)NC(=O)[C@H](Cc3c[nH]c4ccccc34)NC2=O)cc1 [Example 124] (cyclo([AEF](Ac)W[Phe(4-COOH)]G[Pro(4R-NH2)][1Nal(3S-Me)]D[dNMeA]G[Bip(4'-COOH)]WL[dA]A))
5 | 0.246 | CC(=O)NCCOc1ccc(C[C@@H]2NC(=O)[C@H](CCc3ccc(O)cc3)NC(=O)[C@@H](C)NC(=O)[C@H](CO)NC(=O)[C@H](Cc3c[nH]c4ccccc34)NC(=O)[C@H](Cc3ccc(-c4ccc(C(=O)O)cc4)cc3)NC(=O)CNC(=O)[C@@H](C)N(C)C(=O)[C@H](CC(=O)O)NC(=O)[C@H]([C@@H](C)c3c[nH]c4cccc(F)c34)NC(=O)[C@@H]3C[C@@H](N)CN3C(=O)CNC(=O)[C@H](Cc3ccc(C(=O)O)cc3)NC(=O)[C@H](Cc3c[nH]c4ccccc34)NC2=O)cc1 [Example 172] (cyclo([AEF](Ac)W[Phe(4-COOH)]G[Pro(4R-NH2)][Trp(βS-Me,4-F)]D[dNMeA]G[Bip(4'-COOH)]WS[dA][hTyr]))
6 | 0.02 | CC(=O)NCCOc1ccc(C[C@@H]2NC(=O)[C@H](CCC3CCCCC3)NC(=O)[C@@H](CCN)NC(=O)CNC(=O)[C@H](Cc3c[nH]c4ncccc34)NC(=O)[C@H](Cc3ccc(-c4ccc(C(=O)O)cc4)cc3)NC(=O)CNC(=O)[C@@H](C)N(C)C(=O)[C@H](CC(=O)O)NC(=O)[C@H]([C@@H](C)c3cccc4ccccc34)NC(=O)[C@@H]3C[C@@H](N)CN3C(=O)CNC(=O)[C@H](Cc3ccc(C(=O)O)cc3)NC(=O)[C@H](Cc3c[nH]c4ccccc34)NC2=O)cc1 [Example 214] (cyclo([AEF](Ac)W[Phe(4-COOH)]G[Pro(4R-NH2)][1Nal(3S-Me)]D[dNMeA]G[Bip(4'-COOH)][Trp(7-aza)]G[dDab][hCha]))
7 | 0.018 | CC(C)C[C@@H]1NC(=O)[C@H](CCCCN)NC(=O)[C@H](Cc2ccc(-c3ccc(C(=O)O)cc3)cc2)NC(=O)CNC(=O)[C@@H](C)N(C)C(=O)[C@H](CC(=O)O)NC(=O)[C@H]([C@@H](C)c2c[nH]c3cccc(F)c23)NC(=O)[C@@H]2C[C@@H](N)CN2C(=O)CNC(=O)[C@H](Cc2ccc(C(=O)O)cc2)NC(=O)[C@H](Cc2c[nH]c3cc(Cl)ccc23)NC(=O)[C@H](Cc2ccc(-c3ccc(C(=O)O)cc3)cc2)NC(=O)[C@H](CCc2ccc(O)cc2)NC(=O)[C@@H](C)NC1=O [Example 184] (cyclo([Bip(4'-COOH)][Trp(6-Cl)][Phe(4-COOH)]G[Pro(4R-NH2)][Trp(βS-Me,4-F)]D[dNMeA]G[Bip(4'-COOH)]KL[dA][hTyr]))

Source: patent US20230406885A1, “CYCLIC PEPTIDES FOR TRAPPING INTERLEUKIN-1 BETA” (MERCK SHARP & DOHME LLC, priority 2022, published 2023)
